Values joined by “and” are separate entries in the source; they are usually repeats but may differ in a detail not shown here. Identical values can stand only once. Like-named read-outs stand apart in the source and are kept apart here.
Assays:
[1] = target: T1, human muscarinic acetylcholine M1 receptor (M1R) (Homo sapiens, UniProt P11229); assay: Ca2+ mobilization counter-screen in M1R-CHOk1 cells; type: cell-based;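 also: 10 µM test compound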
T1 sequence (P11229 1-460): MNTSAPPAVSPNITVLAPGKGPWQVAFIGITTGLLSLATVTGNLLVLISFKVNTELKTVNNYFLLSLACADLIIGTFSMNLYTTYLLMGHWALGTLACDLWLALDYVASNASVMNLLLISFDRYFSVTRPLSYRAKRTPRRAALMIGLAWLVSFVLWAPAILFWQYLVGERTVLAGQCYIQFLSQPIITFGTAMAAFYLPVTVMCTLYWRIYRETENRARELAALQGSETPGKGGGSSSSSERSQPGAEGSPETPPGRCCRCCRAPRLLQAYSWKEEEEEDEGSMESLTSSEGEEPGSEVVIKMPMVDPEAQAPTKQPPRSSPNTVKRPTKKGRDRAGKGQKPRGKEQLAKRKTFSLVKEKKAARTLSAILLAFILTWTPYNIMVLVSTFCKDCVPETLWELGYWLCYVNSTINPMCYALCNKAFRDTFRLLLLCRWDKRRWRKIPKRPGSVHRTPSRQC
Outline: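 M1R-CHOk1 cells seeded at 30,000/well for 20–24 h were loaded with 2 µM Fluo-4 AM for 1 h at 37 °C in HEPES-buffered HBSS (pH 7.4, 2.5 mM probenecid). Compounds were added after baseline reads, with DMSO at most 0.3% final. Calcium mobilization was read at 37 °C, excitation 485/emission 525 nm.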

GPR139 = target: T2, GPR139 (Homo sapiens, UniProt Q6DWJ6); assay: Inositol monophosphate (IP1) accumulation assay, GPR139-CHOk1; type: cell-based; details: for EC50: mean ± SEM, read-out: pEC50 IP1 (converted); for Emax: read-out: Emax (%) IP1
T2 sequence (Q6DWJ6 1-353): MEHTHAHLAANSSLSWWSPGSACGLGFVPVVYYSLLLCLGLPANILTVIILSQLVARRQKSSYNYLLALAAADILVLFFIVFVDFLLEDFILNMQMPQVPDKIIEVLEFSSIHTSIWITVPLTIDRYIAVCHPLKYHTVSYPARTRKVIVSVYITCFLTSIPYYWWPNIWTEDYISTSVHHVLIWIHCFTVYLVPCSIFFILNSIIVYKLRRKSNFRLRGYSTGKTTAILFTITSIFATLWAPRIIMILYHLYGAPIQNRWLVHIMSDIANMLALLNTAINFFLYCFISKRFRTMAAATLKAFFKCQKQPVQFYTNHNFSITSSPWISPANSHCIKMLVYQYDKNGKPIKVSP

[2] = log [compound] M -4.5, individual replicates
[3] = log [compound] M -5.0, individual replicates
[4] = log [compound] M -5.5, individual replicates
[5] = log [compound] M -6.0, individual replicates
[6] = log [compound] M -6.5, individual replicates
[7] = log [compound] M -7.0, individual replicates
[8] = log [compound] M -7.5, individual replicates
[9] = log [compound] M -8.0, individual replicates
[10] = individual replicates (Supplementary Figure 5)
[11] = Supplementary Table 2, normalized to Lundbeck Cmp 1a

Row | Compound | EC50 (GPR139; Supplementary Table 2) | IP1 response (% of Cmp 1a) (GPR139; [2]) | IP1 response (% of Cmp 1a) (GPR139; [3]) | IP1 response (% of Cmp 1a) (GPR139; [4]) | IP1 response (% of Cmp 1a) (GPR139; [5]) | IP1 response (% of Cmp 1a) (GPR139; [6]) | IP1 response (% of Cmp 1a) (GPR139; [7]) | IP1 response (% of Cmp 1a) (GPR139; [8]) | IP1 response (% of Cmp 1a) (GPR139; [9]) | Ca2+ signal (% of Carbachol) [1, 10] | Emax (GPR139; [11]) | other results
1 | COc1cc(OC)cc(C(=O)NNC(=O)Nc2cccc3ccccc23)c1 [Lundbeck Cmp 1a, reference compound] | 501 nM | 98 % of Cmp 1a and 68 % of Cmp 1a and 86 % of Cmp 1a and 109 % of Cmp 1a | 133 % of Cmp 1a and 94 % of Cmp 1a and 86 % of Cmp 1a and 118 % of Cmp 1a | 120 % of Cmp 1a and 61 % of Cmp 1a and 70 % of Cmp 1a and 104 % of Cmp 1a | 85 % of Cmp 1a and 49 % of Cmp 1a and 68 % of Cmp 1a and 66 % of Cmp 1a | 50 % of Cmp 1a and 44 % of Cmp 1a and 31 % of Cmp 1a and 21 % of Cmp 1a | 21 % of Cmp 1a and 9 % of Cmp 1a and 3.75 % of Cmp 1a and 17 % of Cmp 1a | 16 % of Cmp 1a and 1.22 % of Cmp 1a and 0.482 % of Cmp 1a and 2.32 % of Cmp 1a | 1.43 % of Cmp 1a and -8 % of Cmp 1a and -2.66 % of Cmp 1a and -4 % of Cmp 1a |  |  | Ca2+ signal (% of Carbachol) ([1]; 10 µM, individual replicates (Supplementary Figure 2)): -13 % of Carbachol and 8 % of Carbachol; Ca2+ signal (% of Carbachol) ([1]; 10 µM, individual replicates (Supplementary Figure 5)): -0.591 % of Carbachol and 1.3 % of Carbachol and 0.449 % of Carbachol; IP1 response (% of Cmp 1a) (GPR139; log [Compound] M -4.5, replicate experiments): 68 % of Cmp 1a and 118 % of Cmp 1a and 94 % of Cmp 1a and 117 % of Cmp 1a and 98 % of Cmp 1a and 86 % of Cmp 1a and 109 % of Cmp 1a; IP1 response (% of Cmp 1a) (GPR139; log [Compound] M -5.0, replicate experiments): 78 % of Cmp 1a and 115 % of Cmp 1a and 96 % of Cmp 1a and 112 % of Cmp 1a and 133 % of Cmp 1a and 94 % of Cmp 1a and 86 % of Cmp 1a and 118 % of Cmp 1a; IP1 response (% of Cmp 1a) (GPR139; log [Compound] M -5.5, replicate experiments): 88 % of Cmp 1a and 100 % of Cmp 1a and 81 % of Cmp 1a and 120 % of Cmp 1a and 61 % of Cmp 1a and 70 % of Cmp 1a and 104 % of Cmp 1a; IP1 response (% of Cmp 1a) (GPR139; log [Compound] M -6.0, replicate experiments): 58 % of Cmp 1a and 80 % of Cmp 1a and 57 % of Cmp 1a and 63 % of Cmp 1a and 85 % of Cmp 1a and 49 % of Cmp 1a and 68 % of Cmp 1a and 66 % of Cmp 1a; IP1 response (% of Cmp 1a) (GPR139; log [Compound] M -6.5, replicate experiments): 29 % of Cmp 1a and 32 % of Cmp 1a and 26 % of Cmp 1a and 50 % of Cmp 1a and 44 % of Cmp 1a and 31 % of Cmp 1a and 21 % of Cmp 1a; IP1 response (% of Cmp 1a) (GPR139; log [Compound] M -7.0, replicate experiments): 7.48 % of Cmp 1a and 13 % of Cmp 1a and 2.79 % of Cmp 1a and 11 % of Cmp 1a and 21 % of Cmp 1a and 9 % of Cmp 1a and 3.75 % of Cmp 1a and 17 % of Cmp 1a; IP1 response (% of Cmp 1a) (GPR139; log [Compound] M -7.5, replicate experiments): 6 % of Cmp 1a and 4.58 % of Cmp 1a and 1.86 % of Cmp 1a and 3 % of Cmp 1a and 16 % of Cmp 1a and 1.22 % of Cmp 1a and 0.482 % of Cmp 1a and 2.32 % of Cmp 1a; IP1 response (% of Cmp 1a) (GPR139; log [Compound] M -8.0, replicate experiments): 1.17 % of Cmp 1a and 1.86 % of Cmp 1a and 0.194 % of Cmp 1a and 1 % of Cmp 1a and 1.43 % of Cmp 1a and -8 % of Cmp 1a and -2.66 % of Cmp 1a and -4 % of Cmp 1a; Emax (GPR139): 101 ± 12%
2 | Cc1nocc1-c1nc(CC(=O)NC(C)c2ccccc2)no1 (stereo not drawn) [Compound 1.5, CC(C1=CC=CC=C1)NC(CC2=NOC(C3=CON=C3C)=N2)=O] | 501 nM | 120 % of Cmp 1a and 99 % of Cmp 1a and 50 % of Cmp 1a and 106 % of Cmp 1a | 127 % of Cmp 1a and 79 % of Cmp 1a and 71 % of Cmp 1a and 109 % of Cmp 1a | 103 % of Cmp 1a and 63 % of Cmp 1a and 65 % of Cmp 1a and 87 % of Cmp 1a | 75 % of Cmp 1a and 61 % of Cmp 1a and 56 % of Cmp 1a and 68 % of Cmp 1a | 59 % of Cmp 1a and 41 % of Cmp 1a and 29 % of Cmp 1a and 43 % of Cmp 1a | 26 % of Cmp 1a and 25 % of Cmp 1a and 8 % of Cmp 1a and 18 % of Cmp 1a | 22 % of Cmp 1a and 7 % of Cmp 1a and 0.699 % of Cmp 1a and 13 % of Cmp 1a | 12 % of Cmp 1a and -12 % of Cmp 1a and -8.56 % of Cmp 1a and 4.3 % of Cmp 1a | 5 % of Carbachol and 6 % of Carbachol and 8 % of Carbachol | 102 ± 15% | 
3 | COc1ccccc1-c1nc(CC(=O)NC(C)c2ccccc2)no1 (stereo not drawn) [Compound 1.2, COC1=C(C2=NC(CC(NC(C3=CC=CC=C3)C)=O)=NO2)C=CC=C1] | 501 nM | 124 % of Cmp 1a and 88 % of Cmp 1a and 75 % of Cmp 1a and 93 % of Cmp 1a | 116 % of Cmp 1a and 87 % of Cmp 1a and 73 % of Cmp 1a and 117 % of Cmp 1a | 100 % of Cmp 1a and 64 % of Cmp 1a and 57 % of Cmp 1a and 96 % of Cmp 1a | 93 % of Cmp 1a and 47 % of Cmp 1a (2×) and 64 % of Cmp 1a | 57 % of Cmp 1a and 45 % of Cmp 1a and 31 % of Cmp 1a and 51 % of Cmp 1a | 15 % of Cmp 1a and 18 % of Cmp 1a and 6 % of Cmp 1a and 14 % of Cmp 1a | 15 % of Cmp 1a and 11 % of Cmp 1a and -2 % of Cmp 1a and 7.38 % of Cmp 1a | 2 % of Cmp 1a and -5.58 % of Cmp 1a and -11 % of Cmp 1a and 6.5 % of Cmp 1a | -21 % of Carbachol and 0.491 % of Carbachol and -3.3 % of Carbachol | 100 ± 9% | 

Reference: paper PMC12775434, “Ultra-large virtual screening unveils potent agonists of the neuromodulatory orphan receptor GPR139” (Nature Communications, 2025)
